The values below come from patent US20070104645A1, “Chelate based scaffolds in tumor targeting” (priority 2003, published 2007).

One experiment deals with T1, ανβ3 receptor (Homo sapiens, UniProt P05106+P06756).
T1 construct: endothelial cells known to express ανβ3 receptors on their surface (HBEC cells); endogenous in cells; host or cells: HBEC endothelial cells
Put plainly: whole cell adhesion inhibition assay (HBEC cells on vitronectin-coated plates). The following applies: for inhibition of HBEC adhesion (in words): 100 uM. The experiment is classed as cell-based. The source says: Biological Assay Studies: A biological whole cell adhesion inhibition assay was developed to evaluate the synthesized macrocyclic RGD mimetics. This assay uses endothelial cells known to express ανβ3 receptors on their surface (HBEC cells) and also known to require vitronectin binding at the ανβ3 receptor to initiate adhesion processes. Vitronectin was coated on microtiter plates and exposed to cell suspensions. As the target molecules prepared herein compete with vitronectin for binding at the ανβ3 they will interfere with the adhesion process. This can be used to quantify/rank their ability to do so. The amount of ανβ3 mediated adhesion was determined by cell staining with subsequent quantitation by UV absorption proportional to the amount of stain present. This test procedure has been optimized with regard to vitronectin quantities, cell numbers, volumes, times, and the cell staining process.

The subject of another experiment is Leydig cell tumor. The following applies: mouse-based Leydig cell tumor model; cited from earlier work.

Square brackets hold non-standard residues; d marks the D form. Peptide text beside a SMILES is read from it. Ava = NCCCCC(=O)O

T1 sequence (P06756 31-889 limits assumed): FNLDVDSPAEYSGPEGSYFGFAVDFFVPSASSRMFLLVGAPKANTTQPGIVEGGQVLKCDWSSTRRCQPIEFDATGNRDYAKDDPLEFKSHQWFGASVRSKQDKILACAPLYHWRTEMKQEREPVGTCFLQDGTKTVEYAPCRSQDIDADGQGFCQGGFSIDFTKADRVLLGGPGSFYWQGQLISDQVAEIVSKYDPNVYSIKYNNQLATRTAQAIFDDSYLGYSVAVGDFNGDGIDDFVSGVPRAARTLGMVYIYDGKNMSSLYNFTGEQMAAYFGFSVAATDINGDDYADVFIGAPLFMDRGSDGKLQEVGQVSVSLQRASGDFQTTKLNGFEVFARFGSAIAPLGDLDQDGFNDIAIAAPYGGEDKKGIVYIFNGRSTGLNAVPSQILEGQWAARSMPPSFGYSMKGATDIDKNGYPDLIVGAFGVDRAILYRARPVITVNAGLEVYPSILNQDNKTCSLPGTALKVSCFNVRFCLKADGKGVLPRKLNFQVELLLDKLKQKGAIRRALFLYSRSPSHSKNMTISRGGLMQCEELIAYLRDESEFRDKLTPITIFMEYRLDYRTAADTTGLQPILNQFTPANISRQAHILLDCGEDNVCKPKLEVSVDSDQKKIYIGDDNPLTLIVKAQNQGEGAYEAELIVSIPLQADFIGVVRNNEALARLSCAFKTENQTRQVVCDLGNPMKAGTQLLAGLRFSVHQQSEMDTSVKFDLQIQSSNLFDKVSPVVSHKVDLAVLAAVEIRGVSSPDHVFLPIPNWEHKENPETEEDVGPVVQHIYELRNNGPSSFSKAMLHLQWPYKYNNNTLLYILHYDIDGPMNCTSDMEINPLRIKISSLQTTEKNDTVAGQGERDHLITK
T1 sequence (P06756 891-1048 partner limits assumed): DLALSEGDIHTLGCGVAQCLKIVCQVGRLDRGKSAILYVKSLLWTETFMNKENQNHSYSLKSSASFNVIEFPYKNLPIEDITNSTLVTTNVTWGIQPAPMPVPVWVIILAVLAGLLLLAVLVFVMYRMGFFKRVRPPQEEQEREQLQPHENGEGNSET
T1 sequence (P05106 27-788): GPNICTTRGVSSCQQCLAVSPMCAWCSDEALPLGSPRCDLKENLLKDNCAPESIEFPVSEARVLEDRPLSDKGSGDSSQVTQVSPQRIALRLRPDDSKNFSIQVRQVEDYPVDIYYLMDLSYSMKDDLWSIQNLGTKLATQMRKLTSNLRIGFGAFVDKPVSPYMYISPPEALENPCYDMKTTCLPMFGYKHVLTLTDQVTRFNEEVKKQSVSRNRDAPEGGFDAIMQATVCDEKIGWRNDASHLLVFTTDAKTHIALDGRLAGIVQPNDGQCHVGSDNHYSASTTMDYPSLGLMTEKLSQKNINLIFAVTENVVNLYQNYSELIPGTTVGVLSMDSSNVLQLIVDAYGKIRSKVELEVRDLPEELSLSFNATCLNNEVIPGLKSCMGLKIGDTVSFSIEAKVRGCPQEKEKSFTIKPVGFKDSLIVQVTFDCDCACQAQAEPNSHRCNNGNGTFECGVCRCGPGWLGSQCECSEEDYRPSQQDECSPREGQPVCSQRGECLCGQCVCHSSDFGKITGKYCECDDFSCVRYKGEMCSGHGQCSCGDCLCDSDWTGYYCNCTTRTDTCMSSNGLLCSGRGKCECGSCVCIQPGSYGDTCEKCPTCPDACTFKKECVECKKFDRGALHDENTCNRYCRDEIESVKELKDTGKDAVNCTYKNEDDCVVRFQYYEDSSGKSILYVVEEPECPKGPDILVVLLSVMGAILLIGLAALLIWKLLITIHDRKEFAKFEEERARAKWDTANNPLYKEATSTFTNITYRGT

In the case of `[H]/N=C(/N)NCCCC(N)C(=O)NCC(=O)NC(CC(=O)O)C(=O)NC(CO)C(=O)O` (stereo not shown) [RGDS], at ανβ3 receptor, the “inhibition of HBEC adhesion (in words)” value is recorded as “decreased it completely”. In addition, the “decrease in amount of adhesion” value at ανβ3 receptor (20 uMolar) is on record as 69%.

On to `NC(N)=Nc1cccc(C(=O)NCC(=O)NC(CC(=O)O)c2cc(Cl)cc(Cl)c2)c1` (stereo not shown) [SC-68448], for which, in the experiment on Leydig cell tumor, the “reduction in tumor growth” value is recorded as “up to 80%”.

Regarding `NCCCCC(=O)NCC(=O)NC(CC(=O)O)C(=O)NC(CO)C(=O)O` (stereo not shown) [lot A015-82PBS] (H-[Ava]GDS-OH; configuration not given here), the “inhibition of HBEC adhesion (in words)” value against ανβ3 receptor is “completely inactive”.
